# Test results from patent EP1074545A1, “ISOQUINOLINESULFONAMIDE DERIVATIVES AND DRUGS CONTAINING THE SAME AS THE ACTIVE INGREDIENT” (Hidaka, Hiroyoshi, priority 1998, dated 1999).
# Counter-ions that a name gives are not always drawn.
# Tested on: HIV-infected cells
# Assay: p24 protein production inhibiting effect (in vitro), quantitation of p24 protein by ELISA
# Format: cell-based
# Conditions: for content of p24 protein, Day 1: control 569542; for content of p24 protein, Day 5: control 902226; for content of p24 protein, Day 0: control 0
# Procedure: p24 Protein Production Inhibiting Effect (in vitro)
# Quantitation of p24 protein was conducted by ELISA.
# HIV-infected cells were lysed in a lysis buffer, and were poured in predetermined constant aliquots into the individual wells of a 96-well microplate. Subsequent to adsorption of an antigen, a solution of a biotinylated anti-p24 monoclonal antibody was added. A streptavidin-labeled peroxidase was added, followed by the addition of a substrate for staining. One, three and five days later or 2 and 4 days later, a terminating solution was added to terminate the reaction. Concerning each of the wells, the absorbance at 450 nm was measured to determine the content of p24 protein in the well.
# [1] = Table 5, compound at 1.60 µg/mℓ, control 349386
# [2] = Table 5, compound at 1.60 µg/mℓ, control 435119
smiles,measurement,setting,value
"O=S(=O)(c1cccc2c(O)nccc12)N1CCCNCC1 [Example 6, 1-(1-Hydroxy-5-isoquinolinesulfonyl)hexahydro-1H-1,4-diazepine·monohydrochloride]","content of p24 protein, Day 1","Table 1, compound at 20 µg/m",551489 pg/mL
same,"content of p24 protein, Day 2","Table 1, compound at 20 µg/m, control 881594",645621 pg/mL
same,"content of p24 protein, Day 5","Table 1, compound at 20 µg/m",698489 pg/mL
"CCCCCCOc1ncc(C)c2c(S(=O)(=O)N3CCCNCC3)cccc12 [Example 14, 1-(1-n-Hexyloxy-4-methyl-5-isoquinolinesulfonyl)hexahydro-1H-1,4-diazepine]","content of p24 protein, Day 0","Table 2, compound at 8 µg/mℓ",0 pg/m
same,"content of p24 protein, Day 2","Table 2, compound at 8 µg/mℓ, control 46732",1022 pg/m
same,"content of p24 protein, Day 4","Table 2, compound at 8 µg/mℓ, control 104484",0 pg/m
"CCCCCCCCOc1ncc(C)c2c(S(=O)(=O)N3CCCNCC3)cccc12 [Example 20, 1-(4-Methyl-1-n-octyloxy-5-isoquinolinesulfonyl)hexahydro-1H-1,4-diazepine]","content of p24 protein, Day 4","Table 4, compound at 0.32 µg/mℓ, control 38991",31250 pg/mL
same,"content of p24 protein, Day 2","Table 4, compound at 0.32 µg/mℓ, control 58304.5",31250 pg/mL
"CCCCCCCCCCCCCCCCCCOc1ncc(C)c2c(S(=O)(=O)N3CCCNCC3)cccc12 [Example 21, 1-(4-Methyl-1-n-octadecyloxy-5-isoquinolinesulfonyl)hexahydro-1H-1,4-diazepine]","content of p24 protein, Day 4","Table 4, compound at 0.16 µg/mℓ, control 38991",31250 pg/mL
same,"content of p24 protein, Day 2","Table 4, compound at 0.16 µg/mℓ, control 58304.5",31250 pg/mL
"Cc1cnc(OC(C)C)c2cccc(S(=O)(=O)N3CCCNCC3)c12 [Example 22, 1-(1-Isopropyloxy-4-methyl-5-isoquinolinesulfonyl)hexahydro-1H-1,4-diazepine]","content of p24 protein, Day 4","Table 4, compound at 1.60 µg/mℓ, control 38991",20897 pg/mL
same,"content of p24 protein, Day 2","Table 4, compound at 1.60 µg/mℓ, control 58304.5",17405 pg/mL
"CCCCC(CC)COc1ncc(C)c2c(S(=O)(=O)N3CCCNCC3)cccc12 (stereo not shown) [Example 25, 1-(1-(2-Ethyl)hexyloxy-4-methyl-5-isoquinolinesulfonyl)hexahydro-1H-1,4-diazepine]","content of p24 protein, Day 4","Table 4, compound at 4.00 µg/mℓ, control 38991",16416 pg/mL
same,"content of p24 protein, Day 2","Table 4, compound at 4.00 µg/mℓ, control 58304.5",25557 pg/mL
"CCCCCCOc1nccc2c(S(=O)(=O)N3CCCNCC3)cccc12 [Example 28, 1-(1-Hexyloxy-5-isoquinolinesulfonyl)hexahydro-1H-1,4-diazepine]","content of p24 protein, Day 4",[1],69877 pg/mL
same,"content of p24 protein, Day 2",[2],156250 pg/mL
"Cc1cncc2cccc(S(=O)(=O)N3CCNCC3)c12 [Example 29, 1-(4-Methyl-5-isoquinolinesulfonyl)piperazine]","content of p24 protein, Day 0","Table 2, compound at 0.32 µg/mℓ",0 pg/m
same,"content of p24 protein, Day 2","Table 2, compound at 0.32 µg/mℓ, control 46732",69877 pg/m
same,"content of p24 protein, Day 4","Table 2, compound at 0.32 µg/mℓ, control 104484",69877 pg/m
"Cc1cnc(O)c2cccc(S(=O)(=O)N3CCCNC(C)C3)c12 (stereo not shown) [Example 36, 1-(1-Hydroxy-4-methyl-5-isoquinolinesulfonyl)-3-methylhexahydro-1H-1,4-diazepine·monohydrochloride]","content of p24 protein, Day 4","Table 5, compound at 3.20 µg/mℓ, control 349386",82082 pg/mL
same,"content of p24 protein, Day 2","Table 5, compound at 3.20 µg/mℓ, control 435119",104484 pg/mL
"CNc1ncc(C)c2c(S(=O)(=O)N3CCCNCC3)cccc12 [Example 41, 1-(4-Methyl-1-N-methylamino-5-isoquinolinesulfonyl)hexahydro-1H-1,4-diazepine]","content of p24 protein, Day 0","Table 2, compound at 0.8 µg/mℓ",0 pg/m
same,"content of p24 protein, Day 2","Table 2, compound at 0.8 µg/mℓ, control 46732",82082 pg/m
same,"content of p24 protein, Day 4","Table 2, compound at 0.8 µg/mℓ, control 104484",66977 pg/m
"C=CCOc1ncc(C)c2c(S(=O)(=O)N3CCCNCC3)cccc12 [Example 46, 1-(1-Allyloxy-4-methyl-5-isoquinolinesulfonyl)hexahydro-1H-1,4-diazepine]","content of p24 protein, Day 4","Table 5, compound at 8.00 µg/mℓ, control 349386",156250 pg/mL
same,"content of p24 protein, Day 2","Table 5, compound at 8.00 µg/mℓ, control 435119",233662 pg/mL
"Cc1cnc(OCc2c(F)c(F)c(F)c(F)c2F)c2cccc(S(=O)(=O)N3CCCNCC3)c12 [Example 48, 1-(4-Methyl-1-pentafluorophenylmethyloxy-5-isoquinolinesulfonyl)hexahydro-1H-1,4-diazepine]","content of p24 protein, Day 4",[1],297434 pg/mL
same,"content of p24 protein, Day 2",[2],82082 pg/mL
"Cc1cnc(O)c2cccc(S(=O)(=O)N3CCCNCC3C)c12 (stereo not shown) [Example 51, 1-(1-Hydroxy-4-methyl-5-isoquinolinesulfonyl)2-methylhexahydro-1H-1,4-diazepine·monohydrochloride]","content of p24 protein, Day 1","Table 1, compound at 10 µg/m",641752 pg/mL
same,"content of p24 protein, Day 2","Table 1, compound at 10 µg/m, control 881594",624989 pg/mL
same,"content of p24 protein, Day 5","Table 1, compound at 10 µg/m",566963 pg/mL
"CCCCCCOc1ncc(C)c2c(S(=O)(=O)N3CCCNCC3C)cccc12 (stereo not shown) [Example 53, 1-(1-n-Hexyloxy-4-methyl-5-isoquinolinesulfonyl)2-methylhexahydro-1H-1,4-diazepine]","content of p24 protein, Day 4","Table 5, compound at 40.0 µg/mℓ, control 349386",233662 pg/mL
same,"content of p24 protein, Day 2","Table 5, compound at 40.0 µg/mℓ, control 435119",94822 pg/mL
"O=S(=O)(c1cccc2cncc(F)c12)N1CCCNCC1 [Example 55, 1-(4-Fluoro-5-isoquinolinesulfonyl)hexahydro-1H-1,4-diazepine]","content of p24 protein, Day 4","Table 3, compound at 4 µg/mℓ, control 82079",59487 pg/mL
same,"content of p24 protein, Day 2","Table 3, compound at 4 µg/mℓ, control 104484",59487 pg/mL
"Cc1cncc2c(S(=O)(=O)N3CCCNCC3)cccc12 [Example 66, 1-(4-Methyl-8-isoquinolinesulfonyl)hexahydro-1H-1,4-diazepine]","content of p24 protein, Day 4","Table 4, compound at 200 µg/mℓ, control 38991",20897 pg/mL
same,"content of p24 protein, Day 2","Table 4, compound at 200 µg/mℓ, control 58304.5",25557 pg/mL
